Results from patent publication US11912701B2, “Protein kinase inhibitors for promoting liver regeneration or reducing or preventing hepatocyte death” (HEPAREGENIX GMBH, priority 2018, dated 2024).

Tests used:
MKK4 [1] = target: T1, MKK4 (Homo sapiens, UniProt P45985); assay: KINOMEscan competition binding assay, MKK4; settings: residual percent of control binding (PoC) at 100 nM
T1 construct: S84/D399; host or cells: HEK-293
T1 sequence (P45985 84-399): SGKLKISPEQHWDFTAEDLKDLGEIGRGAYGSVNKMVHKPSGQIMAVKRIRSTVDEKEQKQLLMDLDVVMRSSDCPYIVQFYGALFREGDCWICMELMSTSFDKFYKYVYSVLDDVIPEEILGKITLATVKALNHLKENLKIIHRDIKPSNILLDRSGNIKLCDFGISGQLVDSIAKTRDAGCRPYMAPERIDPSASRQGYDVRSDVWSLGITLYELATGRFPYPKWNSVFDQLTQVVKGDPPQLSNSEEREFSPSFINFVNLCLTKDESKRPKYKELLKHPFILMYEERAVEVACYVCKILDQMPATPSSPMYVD
Summary of the method: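 KINOMEscan competition of compound versus immobilized ligand for DNA-tagged MKK4 expressed in HEK-293 cells. Bound kinase was quantified by qPCR after elution.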

BRaf [2] = target: T2, BRaf (Homo sapiens, UniProt P15056); assay: KINOMEscan competition binding assay, BRaf; settings: ratio PoC (off-target)/PoC (MKK4)
T2 construct: purchased ProQinase GmbH, Freiburg, Germany (33PanQinase Assay Service)
T2 sequence (P15056 whole entry, species assumed): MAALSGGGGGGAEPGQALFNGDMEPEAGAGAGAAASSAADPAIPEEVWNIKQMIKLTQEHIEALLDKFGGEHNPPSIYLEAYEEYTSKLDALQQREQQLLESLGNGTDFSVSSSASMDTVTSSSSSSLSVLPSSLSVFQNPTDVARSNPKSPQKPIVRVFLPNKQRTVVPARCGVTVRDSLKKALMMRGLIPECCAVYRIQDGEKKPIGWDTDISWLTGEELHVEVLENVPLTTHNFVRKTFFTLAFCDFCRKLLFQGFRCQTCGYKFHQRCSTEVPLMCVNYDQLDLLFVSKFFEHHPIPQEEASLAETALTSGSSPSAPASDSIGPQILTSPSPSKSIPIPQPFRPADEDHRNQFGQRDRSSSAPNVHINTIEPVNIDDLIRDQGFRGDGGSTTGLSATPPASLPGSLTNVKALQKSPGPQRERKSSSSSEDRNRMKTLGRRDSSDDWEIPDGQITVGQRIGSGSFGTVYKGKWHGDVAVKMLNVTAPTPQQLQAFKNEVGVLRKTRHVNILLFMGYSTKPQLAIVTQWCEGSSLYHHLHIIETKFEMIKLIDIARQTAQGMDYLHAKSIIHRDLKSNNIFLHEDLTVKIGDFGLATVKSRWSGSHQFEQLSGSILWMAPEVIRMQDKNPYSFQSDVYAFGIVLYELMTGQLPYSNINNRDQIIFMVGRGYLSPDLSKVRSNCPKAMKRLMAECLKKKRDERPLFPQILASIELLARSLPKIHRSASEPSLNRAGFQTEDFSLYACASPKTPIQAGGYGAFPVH
Summary of the method: (§1)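 DNA-tagged kinases expressed in HEK-293 cells compete between immobilized ligand on blocked beads and test compound at 100 nM; kinase retained on beads quantified by qPCR of the tag.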

MKK4 [3] = target: T3, MKK4 (Homo sapiens, UniProt P45985); assay: 33PanQinase enzyme assay, MKK4; type: biochemical; settings: assay 'IC50'; read-out: Potency MKK4 (IC50)
T3 construct: purchased ProQinase GmbH, Freiburg, Germany (33PanQinase Assay Service)
T3 sequence (P45985 1-399): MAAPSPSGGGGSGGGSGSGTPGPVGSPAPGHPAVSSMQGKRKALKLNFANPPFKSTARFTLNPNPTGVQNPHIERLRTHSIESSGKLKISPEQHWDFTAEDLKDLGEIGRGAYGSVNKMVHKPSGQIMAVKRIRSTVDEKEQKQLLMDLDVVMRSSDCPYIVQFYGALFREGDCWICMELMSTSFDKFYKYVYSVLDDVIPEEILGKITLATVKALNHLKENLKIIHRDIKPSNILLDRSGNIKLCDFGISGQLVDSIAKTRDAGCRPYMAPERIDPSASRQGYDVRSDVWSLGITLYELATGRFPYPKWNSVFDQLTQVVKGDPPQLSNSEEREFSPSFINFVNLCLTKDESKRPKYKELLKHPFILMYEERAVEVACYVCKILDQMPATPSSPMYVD
Summary of the method: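 Radiometric 33PanQinase assay: kinase, substrate, ATP and compound in standard buffer, 60 min at 30 °C; 33Pi incorporation read by scintillation counting.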

BRaf [4] = target: T2, BRaf; assay: 33PanQinase enzyme assay, BRaf; type: biochemical; settings: ratio IC50(BRaf)/IC50(MKK4)
Summary of the method: (§2)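 Radiometric kinase reactions with ATP, test compound in DMSO and enzyme/substrate mix were incubated 60 min at 30 °C, stopped with 2% H3PO4 and washed; incorporated 33Pi was counted by scintillation. Single-concentration data are given as % residual activity; IC50 values come from least-squares curve fits.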

MKK7 [5] = target: T4, MKK7 (Homo sapiens, UniProt O14733); assay: KINOMEscan competition binding assay, MKK7; set-up: M1/R419; host or cells: HEK-293; settings: ratio PoC (off-target)/PoC (MKK4)
T4 sequence (O14733 1-419): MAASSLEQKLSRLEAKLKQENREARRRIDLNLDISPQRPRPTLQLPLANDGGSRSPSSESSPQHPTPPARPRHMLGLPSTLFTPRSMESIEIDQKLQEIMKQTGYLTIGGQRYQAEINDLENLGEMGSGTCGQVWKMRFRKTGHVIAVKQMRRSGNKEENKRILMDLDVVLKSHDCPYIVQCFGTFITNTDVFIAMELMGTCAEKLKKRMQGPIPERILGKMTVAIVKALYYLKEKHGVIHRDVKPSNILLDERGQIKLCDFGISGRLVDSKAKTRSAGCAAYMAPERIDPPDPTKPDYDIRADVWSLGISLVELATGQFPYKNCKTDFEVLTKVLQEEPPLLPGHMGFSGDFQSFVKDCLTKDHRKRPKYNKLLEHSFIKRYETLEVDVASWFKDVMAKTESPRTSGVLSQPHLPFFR
Summary of the method: as §1

JNK1 [6] = target: T5, JNK1 (Homo sapiens, UniProt P45983); assay: KINOMEscan competition binding assay, JNK1; set-up: M1/Q384; host or cells: HEK-293; settings: ratio PoC (off-target)/PoC (MKK4)
Summary of the method: as §1
Target sequence in this assay (P45983 1-384 isoform P45983-2): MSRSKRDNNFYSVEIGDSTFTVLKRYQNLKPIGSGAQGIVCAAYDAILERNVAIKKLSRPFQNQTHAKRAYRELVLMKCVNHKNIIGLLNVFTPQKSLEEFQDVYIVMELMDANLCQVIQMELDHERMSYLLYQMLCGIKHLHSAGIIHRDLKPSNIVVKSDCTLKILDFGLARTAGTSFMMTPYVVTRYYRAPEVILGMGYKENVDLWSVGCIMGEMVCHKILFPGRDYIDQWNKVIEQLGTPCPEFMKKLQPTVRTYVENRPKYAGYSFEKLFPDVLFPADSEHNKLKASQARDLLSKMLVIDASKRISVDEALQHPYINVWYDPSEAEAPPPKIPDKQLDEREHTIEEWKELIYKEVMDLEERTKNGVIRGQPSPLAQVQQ

JNK1 [7] = target: T5, JNK1; assay: 33PanQinase enzyme assay, JNK1; type: biochemical; set-up: purchased ProQinase GmbH, Freiburg, Germany (33PanQinase Assay Service); settings: ratio IC50(JNK1)/IC50(MKK4)
Summary of the method: as §2
Target sequence in this assay (P45983 whole entry): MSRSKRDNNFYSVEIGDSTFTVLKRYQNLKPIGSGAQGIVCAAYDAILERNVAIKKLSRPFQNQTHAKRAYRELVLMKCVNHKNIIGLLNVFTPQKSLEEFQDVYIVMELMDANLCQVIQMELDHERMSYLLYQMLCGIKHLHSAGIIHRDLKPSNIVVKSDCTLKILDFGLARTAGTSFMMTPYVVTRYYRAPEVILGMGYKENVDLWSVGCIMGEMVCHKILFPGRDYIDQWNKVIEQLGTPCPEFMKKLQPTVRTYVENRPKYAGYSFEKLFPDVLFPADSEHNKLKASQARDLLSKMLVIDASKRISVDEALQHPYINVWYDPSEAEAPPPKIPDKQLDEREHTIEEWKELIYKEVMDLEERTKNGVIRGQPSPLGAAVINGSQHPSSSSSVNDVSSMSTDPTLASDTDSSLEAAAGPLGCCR

MKK7 [8] = target: T4, MKK7; assay: 33PanQinase enzyme assay, MKK7; type: biochemical; set-up: purchased ProQinase GmbH, Freiburg, Germany (33PanQinase Assay Service); settings: ratio IC50(MKK7)/IC50(MKK4)
Summary of the method: as §2

| SMILES | MKK4 [% Ctrl @ 100 nM (MKK4 [1]) | selectivity based on % Ctrl @100 nM vs. Braf (BRaf [2]) | IC50 (MKK4 [3]) [nM] | Selectivity Braf, IC50(off-target)/IC50(MKK4) (BRaf [4]) | selectivity based on % Ctrl @100 nM vs. MKK7 (MKK7 [5]) | selectivity based on % Ctrl @100 nM vs. JNK1 (JNK1 [6]) | Selectivity JNK1, IC50(off-target)/IC50(MKK4) (JNK1 [7]) | Selectivity IVIKK7, IC50(off-target)/IC50(MKK4) (MKK7 [8]) |
| --- | --- | --- | --- | --- | --- | --- | --- | --- |
| CCCS(=O)(=O)Nc1ccc(F)c(C(=O)c2c[nH]c3ncc(-c4ccc(N)nc4)cc23)c1F [Example 50] | +++ (PoC < 1) | ◯ (3 ≥ Ratio) | 100 to 1000 | ◯ (3 ≥ IC50(off-target)/IC50(MKK4)) | +++ (Ratio > 100) | +++ (Ratio > 100) | ◯ (3 ≥ IC50(off-target)/IC50(MKK4)) | +++ (IC50(off-target)/IC50(MKK4) > 100) |
| CCCS(=O)(=O)Nc1ccc(F)c(C(=O)c2c[nH]c3ncc(-c4ccc(C(=O)O)cc4)cc23)c1F [Example 108, 4-(3-(2,6-difluoro-3-(propylsulfonamido)benzoyl)-1H-pyrrolo[2,3-b]pyridin-5-yl)benzoic acid] | +++ (PoC < 1) | ++ (100 ≥ ratio > 10) | < 100 | ◯ (3 ≥ IC50(off-target)/IC50(MKK4)) | +++ (Ratio > 100) | +++ (Ratio > 100) | + (10 ≥ IC50(off-target)/IC50(MKK4) > 3) | +++ (IC50(off-target)/IC50(MKK4) > 100) |
| CCCS(=O)(=O)Nc1ccc(F)c(C(=O)c2c[nH]c3ncc(-c4cccc(O)c4)cc23)c1F [Example 101, N-(2,4-difluoro-3-(5-(3-hydroxyphenyl)-1H-pyrrolo[2,3-b]pyridine-3-carbonyl)phenyl)propane-1-sulfonamide] | ++ (1 ≤ PoC < 3) | ◯ (3 ≥ Ratio) | 100 to 1000 | ◯ (3 ≥ IC50(off-target)/IC50(MKK4)) | ++ (100 ≥ ratio > 10) | ++ (100 ≥ ratio > 10) | ◯ (3 ≥ IC50(off-target)/IC50(MKK4)) | +++ (IC50(off-target)/IC50(MKK4) > 100) |
| CCCS(=O)(=O)Nc1ccc(F)c(C(=O)c2c[nH]c3ncc(-c4ccc(C5CCC5)cc4)cc23)c1F [Example 82, N-(3-(5-(4-cyclobutylphenyl)-1H-pyrrolo[2,3-b]pyridine-3-carbonyl)-2,4-difluorophenyl)propane-1-sulfonamide] | +++ (PoC < 1) | +++ (Ratio > 100) | 100 to 1000 | ◯ (3 ≥ IC50(off-target)/IC50(MKK4)) | +++ (Ratio > 100) | +++ (Ratio > 100) | + (10 ≥ IC50(off-target)/IC50(MKK4) > 3) | +++ (IC50(off-target)/IC50(MKK4) > 100) |
| O=C(c1ccc(F)c(NS(=O)(=O)CCC(F)(F)F)c1F)c1c[nH]c2ncc(-c3cccnc3)cc12 [Example 156, N-(2,6-difluoro-3-(5-(pyridin-3-yl)-1H-pyrrolo[2,3-b]pyridine-3-carbonyl)phenyl)-3,3,3-trifluoropropane-1-sulfonamide] | +++ (PoC < 1) | +++ (Ratio > 100) | < 100 | ++ (100 ≥ IC50(off-target)/IC50(MKK4) > 10) | +++ (Ratio > 100) | +++ (Ratio > 100) | +++ (IC50(off-target)/IC50(MKK4) > 100) | +++ (IC50(off-target)/IC50(MKK4) > 100) |
| Cc1cc(F)ncc1-c1cnc2[nH]cc(C(=O)c3ccc(F)c(NS(=O)(=O)CCC(F)(F)F)c3F)c2c1 [Example 157, N-(2,6-difluoro-3-(5-(6-fluoro-4-methylpyridin-3-yl)-1H-pyrrolo[2,3-b]pyridine-3-carbonyl)phenyl)-3,3,3-trifluoropropane-1-sulfonamide] | +++ (PoC < 1) | +++ (Ratio > 100) | < 100 | +++ (IC50(off-target)/IC50(MKK4) > 100) | +++ (Ratio > 100) | +++ (Ratio > 100) | +++ (IC50(off-target)/IC50(MKK4) > 100) | +++ (IC50(off-target)/IC50(MKK4) > 100) |
| O=C(c1cccc(NS(=O)(=O)Cc2ccccc2)c1F)c1c[nH]c2ncc(-c3ccc(Cl)cc3)cc12 [Example 124, N-(3-(5-(4-chlorophenyl)-1H-pyrrolo[2,3-b]pyridine-3-carbonyl)-2-fluorophenyl)-1-phenylmethanesulfonamide] | + (3 ≤ PoC < 30) | ++ (100 ≥ ratio > 10) | 100 to 1000 | +++ (IC50(off-target)/IC50(MKK4) > 100) | ++ (100 ≥ ratio > 10) | ++ (100 ≥ ratio > 10) | ◯ (3 ≥ IC50(off-target)/IC50(MKK4)) | +++ (IC50(off-target)/IC50(MKK4) > 100) |
| COc1ccc(-c2cnc3[nH]cc(C(=O)c4ccc(F)c(NS(=O)(=O)CCC(F)(F)F)c4F)c3c2)cn1 [Example 158, N-(2,6-difluoro-3-(5-(6-methoxypyridin-3-yl)-1H-pyrrolo[2,3-b]pyridine-3-carbonyl)phenyl)-3,3,3-trifluoropropane-1-sulfonamide] | +++ (PoC < 1) | +++ (Ratio > 100) | < 100 | ++ (100 ≥ IC50(off-target)/IC50(MKK4) > 10) | +++ (Ratio > 100) | +++ (Ratio > 100) | +++ (IC50(off-target)/IC50(MKK4) > 100) | +++ (IC50(off-target)/IC50(MKK4) > 100) |
